According to patent US5932709A (University of Michigan, priority 1997, dated 1999):
In brackets after ≈: the same amount, converted by molar mass. Entries after “also recorded” stand apart in the source; their conditions may differ. Where a name gives a salt, the structure may show the parent alone.

Assays:
[1] = test system: MCF-7 human breast tumor cells; assay: MTT growth inhibition, MCF-7; type: cell-based; conditions: MCF7, 144 h, MCF-7, MTT, 6 days, read-out: Growth Inhibitory Activity IC50
Description: (§1) Camptothecin was used as a control to test the anti-cancer efficacy of the novel camptothecin analogs of the present invention.
(§2) Murine B16 melanoma cell line was grown in RPMI 1640 medium supplemented with 10% heat-inactivated fetal bovine serum, 2 mM L-glutamine, 50 units/mL penicillin, 50 μg/mL streptomycin, 25 μg/mL gentamicin, 0.75% sodium bicarbonate 10 mM HEPES buffer (pH 7.4), and 0.06 mg/mL AntiPPLO. Murine P388 leukemic cell line and human HT-29 colon adenocarcinoma line were maintained in RPMI 1640 medium supplemented with 10% heat-inactivated fetal bovine serum. […] MCF-7M human breast adenocarcinoma was maintained in IMEM supplemented with 5% non heat-inactivated fetal bovine serum and 1 nM insulin.
(§3) [See "Rapid Colorimetric Assay For Cellular Growth And Survival: Application To Proliferation And Cytotoxicity Assays," J. Immun. Meth. 65:55 (1983)]. The assay utilizes a tetrazolium salt to quantitatively measure mammalian cell survival and proliferation by colorimetric methods. In particular, MTT, a pale yellow compound with minimal absorbance, is incubated with cancerous cells in addition to (or in the absence of) a particular camptothecin analog. Living cells with active mitochondrial enzymes metabolize the MTT into a dark blue/purple formazan product with high absorbance. The exact procedure used to test the camptothecin analogs of the present invention is described below.
(§4) Exponentially growing cells (1-2×10^3 cells, unless specified otherwise) in 0.1 mL medium were seeded on day 0 in a 96-well microtiter plate. On day 1, 0.1 mL aliquots of medium containing graded concentrations of test analogs were added to the cell plates. After incubation at 37° C. in a humidified incubator for 3 days (P388, P388/CPT, B16) or 6 days (HT-29, MCF-7M), the plates were centrifuged briefly and 100 μL of the growth medium was removed. Cell cultures were incubated with 50 μL of 3-(4,5-dimethylthiazol-2-yl)-2,5-diphenyl-tetrazolium bromide [MTT, 1 mg/mL in Dulbecco's phosphate buffered saline (PBS)] for 4 hr at 37° C. The resulting purple formazan precipitate was solubilized with 200 μL of 0.04 N HCl in isopropyl alcohol. Absorbance was monitored in a BioRad Model 3550 Microplate Reader at a test wavelength of 570 nm and a reference wavelength of 630 nm. The absorbance is transferred to a PC 486 computer. The IC50 values were determined by a computer program (EZ-ED50) that fits all of the data to the following four-parameter logistic equation:
(§5) Y=(Amax -Amin)/(1+[X/IC^50 ])^n +Amin
(§6) where Amax is the absorbance of control cells, Amin is the absorbance of cells in the presence of highest agent concentration, IC^50 is the concentration of agent that inhibits the cell growth by 50% of control cells (based on the absorbance) and n is the slope of the curve.

[2] = test system: HT-29 human colon adenocarcinoma cells; assay: MTT growth inhibition, HT-29; type: cell-based; conditions: 144 h, HT-29, MTT, 6 days, read-out: Growth Inhibitory Activity IC50
Description: as §1, §2, §3, §4, §5, §6

[3] = test system: B16 murine melanoma cells; assay: MTT growth inhibition, B16; type: cell-based; conditions: Mus musculus, 72 h, 3 days, read-out: Growth Inhibitory Activity IC50
Description: as §1, §2, §3, §4, §5, §6

[4] = Water solubility in phosphate buffered saline (spectrophotometric assay); type: physicochemical; conditions: aqueous buffer; water solubility; PBS pH 7.5, room temperature, 24 hr
Description: Approximately 5 mg of test compound was suspended in 1 mL of PBS in a 1.5 mL cryovial. The suspensions were mixed continuously on a Thermolyne vari-mix at room temperature for 24 hr. The suspensions were then centrifuged at 14000×g for 2 minutes to separate the undissolved materials. The supernatant fluids were diluted appropriately with PBS and the ultraviolet spectrums were recorded on a Beckman 640 DU spectrophotometer. For comparison, a standard stock (2 mg/mL in DMSO) solution was prepared for each analog. The ultraviolet spectrum of a 20 of 40 μg/mL standard working solution was measured. The water solubility of each analog was calculated based on the following formula:
Cunknown =Cstandard ×(Aunknown
where Cunknown is the concentration of the unknown solution to be determined; Cstandard is the concentration of the standard working solution (either 20 or 40 μg/mL); Astandard is the absorbance at 350 nm of the standard working solution; DDilution is the appropriate dilution factor used so that the absorbance of the unknown working solution is within the dynamic range of the UV spectrophotometer (less than 2 absorbance units).

tumor growth = conditions: in words; cited from earlier work
[5] = cited from earlier work
[6] = test system: P388/CPT CPT-resistant murine leukemia cells; assay: MTT growth inhibition, P388/CPT; type: cell-based; conditions: Mus musculus, 72 h, 3 days, read-out: Growth Inhibitory Activity IC50
Description: as §1, §2, §3, §4, §5, §6

[7] = test system: P388 murine leukemia cells; assay: MTT growth inhibition, P388; type: cell-based; conditions: Mus musculus, 72 h, 3 days, read-out: Growth Inhibitory Activity IC50
Description: as §1, §2, §3, §4, §5, §6

topoisomerase I = conditions: in words; hydrochloride; cited from earlier work
[8] = as hydrochloride trihydrate; cited from earlier work
carcinoma cells = conditions: in words; hydrochloride; cited from earlier work
[9] = target: T1, human placental topoisomerase I (Homo sapiens, UniProt P11387); assay: Inhibition of topoisomerase I catalytic activity (relaxation of supercoiled SV40 DNA); type: biochemical; conditions: highest concentration tested (100 μg/mL), in words
T1 construct: purchased TopoGen; host or cells: human placenta
T1 sequence (P11387 1-765): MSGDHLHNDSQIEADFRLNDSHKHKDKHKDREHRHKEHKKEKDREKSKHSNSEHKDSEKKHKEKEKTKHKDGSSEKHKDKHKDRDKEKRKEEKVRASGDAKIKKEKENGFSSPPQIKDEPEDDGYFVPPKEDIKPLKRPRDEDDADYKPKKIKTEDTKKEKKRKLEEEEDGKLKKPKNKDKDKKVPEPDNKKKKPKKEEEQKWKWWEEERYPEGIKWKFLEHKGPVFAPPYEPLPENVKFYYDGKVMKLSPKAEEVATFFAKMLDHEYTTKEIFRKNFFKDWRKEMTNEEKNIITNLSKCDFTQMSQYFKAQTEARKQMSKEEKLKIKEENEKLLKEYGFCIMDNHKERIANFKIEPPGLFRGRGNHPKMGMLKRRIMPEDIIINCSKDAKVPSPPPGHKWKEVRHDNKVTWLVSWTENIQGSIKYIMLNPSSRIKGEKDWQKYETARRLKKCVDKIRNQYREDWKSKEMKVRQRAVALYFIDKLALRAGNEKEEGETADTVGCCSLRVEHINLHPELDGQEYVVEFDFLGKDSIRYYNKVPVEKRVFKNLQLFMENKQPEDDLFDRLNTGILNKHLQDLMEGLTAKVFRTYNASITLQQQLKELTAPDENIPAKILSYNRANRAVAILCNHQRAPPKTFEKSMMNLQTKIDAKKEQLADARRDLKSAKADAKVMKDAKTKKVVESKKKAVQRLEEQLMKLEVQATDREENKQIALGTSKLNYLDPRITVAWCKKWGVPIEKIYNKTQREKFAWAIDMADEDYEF
Description: The topoisomerase I catalytic activity was measured by converting the supercoiled SV40 DNA (Form I) to the relaxed form (Form Io). All reactions were performed in 20 μL reaction buffer (Tris-HCl, 10 mM, pH 7.5; EDTA, 1 mM; NaCl, 100 mM) with 0.25 μg SV40 DNA, 0.5 unit of human placental topoisomerase I (TopoGen) and graded concentrations of the analog tested. The reaction mixtures were incubated at 37° C. for 30 minutes. […] Ten μL of the reaction mixture was loaded onto a 1% agarose gel prepared in TAE buffer containing 2 μg/mL chloroquine; and the electrophoresis was performed at 82 volt for 4.5 hr in the TAE buffer containing 2 μg/mL chloroquine. […] The gels were then stained with 0.5 μg/mL ethidium bromide solution for 30 min or longer (if chloroquine is present during the electrophoresis step), and destained with 5 changes of deionized water. […] The DNA bands (image) on the negative were densitometrically scanned with a Molecular Dynamic Personal Densitometer. The percent inhibition of Toposiomerase I activity is calculated based on the following equation:
% Inhibition=(FSC(E+D) -FSC(E))/(FSC(C)
where FSC(E+D) represents fraction of supercoiled DNA in the presence of enzyme and drug; FSC(E) represents fraction of supercoiled DNA in the presence of enzyme alone; FSC(C) represents fraction of supercoiled DNA in the untreated SV40 DNA; the IC50 value was estimated using the same four-parameter logistic equation described in the in vitro growth inhibition studies.

tumor cells = assay: MTT growth inhibition across tumor cell lines (P388, P388/CPT, B16, HT-29, MCF-7M); type: cell-based; conditions: vs camptothecin
Description: as §3
as §4, with “equation: […]” for “equation:”

CC[C@@]1(O)C(=O)OCc2c1cc1n(c2=O)Cc2cc3ccccc3nc2-1 [camptothecin, reference compound]
IC50 [1]: 0.001 µg/mL (≈ 0.00287 µM)
IC50 [2]: 0.002 µg/mL (≈ 0.00574 µM)
IC50 [3]: 0.015 µg/mL (≈ 0.0431 µM)
solubility at 24 h [4]: 20 µg/mL (≈ 57.4 µM)
effectiveness against tumor growth in animal studies (tumor growth): significant efficacy in animal tumor models
side effects in human clinical studies ([5]; human, in vivo): vomiting and diarrhea to myelosuppression and hemorrhagic cystitis
IC50 [6]: 1.12 µg/mL (≈ 3.22 µM)
IC50 [7]: 0.01 µg/mL (≈ 0.0287 µM)

CCc1c2c(nc3ccc(OC(=O)N4CCC(N5CCCCC5)CC4)cc13)-c1cc3c(c(=O)n1C2)COC(=O)[C@]3(O)CC [CPT-11, 7-ethyl-10-[4-(piperidino)-1-piperidino]carboxylcamptothecin hydrochloride]
inhibition of Topoisomerase I activity (topoisomerase I): inability to inhibit Topoisomerase I activity; also recorded: lack of topoisomerase I inhibitory activity
water solubility [8]: 32000 µg/mL
in vitro efficacy / activity (carcinoma cells): negligible in vitro activity
effectiveness against tumor growth in animal studies (tumor growth): significant in vivo preclinical activity

CCCCCC(=O)O[C@]1(CC)C(=O)OCc2c1cc1n(c2=O)Cc2cc3ccccc3nc2-1 [HAR2, camptothecin 20-n-hexanoate]
topoisomerase I inhibition [9]: Neither the acetate (HAR3) nor the hexanoate (HAR2) inhibited the topoisomerase I activity
solubility at 24 h [4]: 2.9 µg/mL (≈ 6.49 µM)
reduction of growth inhibitory activity (tumor cells): ~100 fold

CC[C@@]1(OC(C)=O)C(=O)OCc2c1cc1n(c2=O)Cc2cc3ccccc3nc2-1 [HAR3]
topoisomerase I inhibition [9]: Neither the acetate (HAR3) nor the hexanoate (HAR2) inhibited the topoisomerase I activity
solubility at 24 h [4]: 6.5 µg/mL (≈ 16.6 µM)
reduction of growth inhibitory activity (tumor cells): approximately 10 fold

CC[C@@](O)(C(=O)O)c1cc2n(c(=O)c1CO)Cc1cc3ccccc3nc1-2 [sodium salt of camptothecin]
anti-cancer efficacy ([5]; sodium salt vs unmodified camptothecin, clinical trials): much less than unmodified camptothecin
